Assay results published in PubChem BioAssay AID2060613 (Molecular Pharmacology Branch, DTP, NCI, 2025).
pIC50: −log10 of the molar value.

System: 233499-124-R-J3-PDC complex spheroid viability
Assay: Anticancer human tumor 233499-124-R-J3-PDC patient-derived colon adenocarcinoma cell line growth inhibition [CLK]
Conditions: for pIC50: curve of first compound; for viability, T/C: stronger effect = lower value
Summary of the method: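 Multi-cell-type spheroids combined patient-derived tumor cells with HUVEC endothelial cells and human mesenchymal stem cells. Paired agents were dosed in half-log steps down from about clinical Cmax, or from 10 microM where Cmax was unknown.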

[1] = second compound 0.0316 µM, first compound 0.0316 µM
[2] = second compound 0.0316 µM, first compound 0.1 µM
[3] = second compound 0.0316 µM, first compound 0.316 µM
[4] = second compound 0.0316 µM, first compound 1 µM
[5] = second compound 0.0316 µM, first compound 3.16 µM
[6] = second compound 0.0316 µM, first compound 10 µM
[7] = second compound 0.1 µM, first compound 0.0316 µM
[8] = second compound 0.1 µM, first compound 0.1 µM
[9] = second compound 0.1 µM, first compound 0.316 µM
[10] = second compound 0.1 µM, first compound 1 µM
[11] = second compound 0.1 µM, first compound 3.16 µM
[12] = second compound 0.1 µM, first compound 10 µM
[13] = second compound 0.316 µM, first compound 0.0316 µM
[14] = second compound 0.316 µM, first compound 0.1 µM
[15] = second compound 0.316 µM, first compound 0.316 µM
[16] = second compound 0.316 µM, first compound 1 µM
[17] = second compound 0.316 µM, first compound 3.16 µM
[18] = second compound 0.316 µM, first compound 10 µM
[19] = second compound 1 µM, first compound 0.0316 µM
[20] = second compound 1 µM, first compound 0.1 µM
[21] = second compound 1 µM, first compound 0.316 µM
[22] = second compound 1 µM, first compound 1 µM
[23] = second compound 1 µM, first compound 3.16 µM
[24] = second compound 1 µM, first compound 10 µM
[25] = second compound 3.16 µM, first compound 0.0316 µM
[26] = second compound 3.16 µM, first compound 0.1 µM
[27] = second compound 3.16 µM, first compound 0.316 µM
[28] = second compound 3.16 µM, first compound 1 µM
[29] = second compound 3.16 µM, first compound 3.16 µM
[30] = second compound 3.16 µM, first compound 10 µM
[31] = second compound 10 µM, first compound 0.0316 µM
[32] = second compound 10 µM, first compound 0.1 µM
[33] = second compound 10 µM, first compound 0.316 µM
[34] = second compound 10 µM, first compound 1 µM
[35] = second compound 10 µM, first compound 3.16 µM
[36] = second compound 10 µM, first compound 10 µM
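Note: spheroids exposed to the drug combinations for seven days.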
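Throughout, for viability, T/C: percent viability relative to DMSO vehicle control wells taken as 100%.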

With CC(=O)O[C@H]1C(=O)[C@@]2(C)[C@H]([C@H](OC(=O)c3ccccc3)[C@]3(O)C[C@H](OC(=O)[C@H](O)[C@@H](NC(=O)c4ccccc4)c4ccccc4)C(C)=C1C3(C)C)[C@]1(OC(C)=O)CO[C@@H]1C[C@@H]2O + CNC(=O)c1ccc(Nc2nc(OC3CCCC3)c3c(-c4ccc5nc(C)oc5c4)c[nH]c3n2)c(OC)c1 the pIC50 (second compound 0.0316 µM) was 6.85, the pIC50 (second compound 0.1 µM) was < 5.00 and the pIC50 (second compound 0.316 µM) was < 5.00. The pIC50 (second compound 1 µM) was < 5.00, the pIC50 (second compound 3.16 µM) was < 5.00 and the pIC50 (second compound 10 µM) was < 5.00. For the same compound, the viability, T/C [1] was 80%, the viability, T/C [2] was 59.4% and the viability, T/C [3] was 18.2%. For the same compound, the viability, T/C [4] was 21.5%, the viability, T/C [5] was 31.4% and the viability, T/C [6] was 37.7%. It also gave a viability, T/C [7] of 81.2%, a viability, T/C [8] of 66% and a viability, T/C [9] of 50.7%. It also gave a viability, T/C [10] of 78.5%, a viability, T/C [11] of 72.9% and a viability, T/C [12] of 66.5%. For the same compound, the viability, T/C [13] was 67.9%, the viability, T/C [14] was 81% and the viability, T/C [15] was 84.8%. The viability, T/C [16] was 90.6%, the viability, T/C [17] was 78.8% and the viability, T/C [18] was 68.4%. The viability, T/C [19] was 91.2%, the viability, T/C [20] was 85.9% and the viability, T/C [21] was 77.5%. For the same compound, the viability, T/C [22] was 72.5%, the viability, T/C [23] was 96.3% and the viability, T/C [24] was 66.7%. For the same compound, the viability, T/C [25] was 77%, the viability, T/C [26] was 87.8% and the viability, T/C [27] was 89.5%. For the same compound, the viability, T/C [28] was 90.5%, the viability, T/C [29] was 83.3% and the viability, T/C [30] was 74.2%. For the same compound, the viability, T/C [31] was 67.5%, the viability, T/C [32] was 82.3% and the viability, T/C [33] was 79.1%. For the same compound, the viability, T/C [34] was 79%, the viability, T/C [35] was 81.1% and the viability, T/C [36] was 85.8%.
Compound CCc1c2c(nc3ccc(O)cc13)-c1cc3c(c(=O)n1C2)COC(=O)[C@]3(O)CC + CNC(=O)c1ccc(Nc2nc(OC3CCCC3)c3c(-c4ccc5nc(C)oc5c4)c[nH]c3n2)c(OC)c1 has a pIC50 (second compound 0.0316 µM) of 6.94, a pIC50 (second compound 0.1 µM) of 7.46 and a pIC50 (second compound 0.316 µM) of 7.80. The pIC50 (second compound 1 µM) was 7.82, the pIC50 (second compound 3.16 µM) was 8.33 and the pIC50 (second compound 10 µM) was > 8.50. The viability, T/C (second compound 0.0316 µM, first compound 0.00316 µM) was 76%, the viability, T/C (second compound 0.0316 µM, first compound 0.01 µM) was 56.8% and the viability, T/C [1] was 55%. For the same compound, the viability, T/C [2] was 61.8%, the viability, T/C [3] was 34.7% and the viability, T/C [4] was 18.3%. For the same compound, the viability, T/C (second compound 0.1 µM, first compound 0.00316 µM) was 57.5%, the viability, T/C (second compound 0.1 µM, first compound 0.01 µM) was 53.8% and the viability, T/C [7] was 47.3%. It also gave a viability, T/C [8] of 46.6%, a viability, T/C [9] of 31.1% and a viability, T/C [10] of 11.6%. For the same compound, the viability, T/C (second compound 0.316 µM, first compound 0.00316 µM) was 65.5%, the viability, T/C (second compound 0.316 µM, first compound 0.01 µM) was 50% and the viability, T/C [13] was 38.4%. The viability, T/C [14] was 45.1%, the viability, T/C [15] was 19.6% and the viability, T/C [16] was 11.3%. For the same compound, the viability, T/C (second compound 1 µM, first compound 0.00316 µM) was 63%, the viability, T/C (second compound 1 µM, first compound 0.01 µM) was 49.8% and the viability, T/C [19] was 40.2%. It also gave a viability, T/C [20] of 53.6%, a viability, T/C [21] of 12.3% and a viability, T/C [22] of 5.66%. The viability, T/C (second compound 3.16 µM, first compound 0.00316 µM) was 50.9%, the viability, T/C (second compound 3.16 µM, first compound 0.01 µM) was 48.6% and the viability, T/C [25] was 25.6%. The viability, T/C [26] was 18%, the viability, T/C [27] was 6.64% and the viability, T/C [28] was 5.12%. It also gave a viability, T/C (second compound 10 µM, first compound 0.00316 µM) of 51%, a viability, T/C (second compound 10 µM, first compound 0.01 µM) of 32.3% and a viability, T/C [31] of 35.1%. It also gave a viability, T/C [32] of 17.8%, a viability, T/C [33] of 8.94% and a viability, T/C [34] of 2.94%.
With O=c1[nH]cc(F)c(=O)[nH]1 + CNC(=O)c1ccc(Nc2nc(OC3CCCC3)c3c(-c4ccc5nc(C)oc5c4)c[nH]c3n2)c(OC)c1 the pIC50 (second compound 0.0316 µM) was 6.50, the pIC50 (second compound 0.1 µM) was 6.70 and the pIC50 (second compound 0.316 µM) was 6.78. It also gave a pIC50 (second compound 1 µM) of 6.78, a pIC50 (second compound 3.16 µM) of 6.82 and a pIC50 (second compound 10 µM) of 6.71. The viability, T/C [1] was 91.5%, the viability, T/C [2] was 95.7% and the viability, T/C [3] was 49.8%. It also gave a viability, T/C [4] of 28.5%, a viability, T/C [5] of 20.1% and a viability, T/C [6] of 19.1%. It also gave a viability, T/C [7] of 73%, a viability, T/C [8] of 72.4% and a viability, T/C [9] of 35.2%. For the same compound, the viability, T/C [10] was 21.4%, the viability, T/C [11] was 15.1% and the viability, T/C [12] was 20.4%. It also gave a viability, T/C [13] of 81%, a viability, T/C [14] of 60.5% and a viability, T/C [15] of 36.8%. The viability, T/C [16] was 20.7%, the viability, T/C [17] was 14.9% and the viability, T/C [18] was 16.5%. The viability, T/C [19] was 70.6%, the viability, T/C [20] was 68.7% and the viability, T/C [21] was 26.2%. The viability, T/C [22] was 11.4%, the viability, T/C [23] was 7.78% and the viability, T/C [24] was 9.54%. For the same compound, the viability, T/C [25] was 70.8%, the viability, T/C [26] was 63.1% and the viability, T/C [27] was 26.9%. For the same compound, the viability, T/C [28] was 15.5%, the viability, T/C [29] was 7.07% and the viability, T/C [30] was 6.87%. The viability, T/C [31] was 69.6%, the viability, T/C [32] was 75.3% and the viability, T/C [33] was 33.6%. For the same compound, the viability, T/C [34] was 16%, the viability, T/C [35] was 7.38% and the viability, T/C [36] was 8.24%.
